Laboratory results taken from patent US5155099A, “Alkylphosphonoserines and pharmaceutical compositions useful as cytostatic agents” (Hafslund Nycomed Pharma Aktiengesellschaft, priority 1988, dated 1992).

System: Ehrlich ascites tumor cells
Assay: Concentration-dependent inhibition of growth of Ehrlich ascites tumor cells (antiproliferative action)
Format: cell-based
Text: The novel alkylphosphonoserines have a strong cytostatic and virustatic action. In order to determine the cytostatic action, the antiproliferative action was investigated in Ehrlich ascites tumor cells. It can be seen here that the compounds according to the invention have excellent cytostatic action. They can therefore be employed as cytostatics or virustatics, alone or in a mixture with other active substances, in the form of customary pharmaceutical preparations.
Concentration-dependent Inhibition of Growth of Ehrlich Ascites Tumor Cells

`CCCCCCCCCCCCCCCCP(=O)(O)OC[C@H](N)C(=O)O` [n-Hexadecyl phosphono-L-serine, n-Hexadecylphosphono-L-serine] was tested. Which inhibition at 100 µM (Concentration 1 × 10^-4 M) did it give?
Its inhibition at 100 µM is 89%.

And the inhibition at 10 µM (Concentration 1 × 10^-5 M)?
Its inhibition at 10 µM is 13%.

What about the inhibition at 30 µM (Concentration 3 × 10^-5 M) of the same molecule?
Its inhibition at 30 µM is 45%.

And the inhibition at 3 µM (Concentration 3 × 10^-6 M)?
Its inhibition at 3 µM is 9%.
